How the values were obtained:
[1] = target: T1, LIN28B/pre-let-7a-2 binding (Homo sapiens, UniProt Q6ZN17); assay: FRET assay, EGFP-tagged LIN28B and BHQ-1 labelled pre-let-7a-2; settings: doses 1.25 uM-20 uM; compared with LN1632
T1 construct: made in house; host or cells: stably transduced HEK cells; used as diluted protein lysate, not purified
T1 sequence (Q6ZN17 1-250): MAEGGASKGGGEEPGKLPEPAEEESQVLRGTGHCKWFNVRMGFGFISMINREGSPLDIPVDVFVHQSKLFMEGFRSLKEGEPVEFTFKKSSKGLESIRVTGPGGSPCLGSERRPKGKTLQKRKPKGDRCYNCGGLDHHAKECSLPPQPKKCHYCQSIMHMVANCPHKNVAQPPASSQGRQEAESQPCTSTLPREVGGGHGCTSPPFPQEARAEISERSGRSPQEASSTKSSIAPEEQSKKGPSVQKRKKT
Procedure: As described herein, compounds of formula (I) and (II) show Lin28/let-7 inhibitory activity in FRET assays in vitro and in LSCs and LSC-like Kasumi-1 cells. FRET assay was performed as previously described (51).
In order to improve binding and inhibitory capacity of a compound to LIN28b, we predicted the binding mode of LN1632 to LIN28B. […] With this model in hand, we synthesized novel compounds with improved binding capacity to Lin28b (JGJ002-JGJ008, FIG. 8). Compounds were screened using a previously described FRET-assay with an EGFP-tagged LIN28B as donor and a BHQ-1 quencher labelled pre-let-7a-2 (pre-let-7a-2-BHQ1) as acceptor (51). Briefly, recombinant LIN28B-EGFP was harvested from stably transduced HEK cells and diluted with binding buffer (300 mM NaCl, 25 mM HEPES pH 7.2, 10 μM ZnCl2, 1% Odyssey Blocking Buffer, 0.05% Tween 20, 0.5 mM TCEP) in order to adjust ideal FRET-quenching signal intensity. Protein lysate and compounds (JGJ001-JGJ008) were pre-incubated in doses ranging from 1.25 uM-20 uM for 20 min in 100 uL diluted protein lysate. Subsequently pre-let-7a-2-BHQ1 was added to the mixture (at 6.25 nM) and EGFP-LIN28B donor emission was measured using a Tecan Spark Plate Reader ([…], excitation at 488 nm, emission read-out at […], 30 flashes/s). […] Increased endogenous let-7 miRNA levels can target a panoply of LCS and cancer stem cell hallmark genes thus inhibiting tumor growth.
(§1) To test the structure-activity relationship, 39 LN1632-related analogs (JGJ001-39) were synthesized and their potency and specificity to inhibit LIN28B-RNA binding activity and upregulate mature let-7 miRNA levels was measured. […] The dual luciferase reporter assay was performed as previously described (89).

mature let-7 miRNAs = assay: Dual luciferase reporter assay of mature let-7 miRNAs in HepG2 cells; assay type: cell-based; settings: 3-10 μM, compared with LN1632
Procedure: as §1

CYP 1A2 = target: T2, CYP 1A2 (Homo sapiens, UniProt P05177); assay: CYP inhibition 1A2; assay type: in vitro ADME; parameters: unit not given here; settings: Conc. 10 uM
T2 sequence (P05177 1-516): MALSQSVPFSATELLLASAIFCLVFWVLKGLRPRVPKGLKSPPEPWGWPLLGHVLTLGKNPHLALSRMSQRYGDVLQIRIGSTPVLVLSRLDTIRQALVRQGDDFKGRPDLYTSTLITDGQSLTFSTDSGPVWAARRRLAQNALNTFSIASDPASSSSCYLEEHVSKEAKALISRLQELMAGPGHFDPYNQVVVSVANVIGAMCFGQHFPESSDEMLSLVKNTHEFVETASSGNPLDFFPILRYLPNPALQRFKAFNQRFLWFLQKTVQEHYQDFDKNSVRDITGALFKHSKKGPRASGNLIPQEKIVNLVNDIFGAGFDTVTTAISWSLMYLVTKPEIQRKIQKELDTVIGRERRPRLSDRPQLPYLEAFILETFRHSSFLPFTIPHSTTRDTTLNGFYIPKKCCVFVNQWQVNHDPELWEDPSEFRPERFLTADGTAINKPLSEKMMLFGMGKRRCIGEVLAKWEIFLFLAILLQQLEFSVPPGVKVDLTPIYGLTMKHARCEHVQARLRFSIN

[2] = Microsomal stability, Human; assay type: in vitro ADME; settings: Conc. 5 uM
CYP 2C9 = CYP 2C9 (Homo sapiens, UniProt P11712); assay: CYP inhibition 2C9; assay type: in vitro ADME; parameters: unit not given here; settings: Conc. 10 uM
Sequence of CYP 2C9 (P11712 whole entry): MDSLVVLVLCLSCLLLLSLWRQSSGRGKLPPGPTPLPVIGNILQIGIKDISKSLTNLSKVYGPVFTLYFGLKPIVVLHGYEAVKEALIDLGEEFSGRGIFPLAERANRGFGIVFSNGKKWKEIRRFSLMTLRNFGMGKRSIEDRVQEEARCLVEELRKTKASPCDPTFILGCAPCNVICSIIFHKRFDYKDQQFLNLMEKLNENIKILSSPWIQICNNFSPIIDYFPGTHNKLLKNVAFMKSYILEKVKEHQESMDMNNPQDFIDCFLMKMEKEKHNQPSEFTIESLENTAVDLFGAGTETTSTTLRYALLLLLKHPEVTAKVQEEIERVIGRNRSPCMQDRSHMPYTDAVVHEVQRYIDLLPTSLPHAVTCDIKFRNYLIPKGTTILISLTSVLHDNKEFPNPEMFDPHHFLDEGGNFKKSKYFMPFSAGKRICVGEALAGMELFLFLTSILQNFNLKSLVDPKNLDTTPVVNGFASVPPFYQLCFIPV

CYP 2C8 = target: T3, CYP 2C8 (Homo sapiens, UniProt P10632); assay: CYP inhibition 2C8; assay type: in vitro ADME; parameters: unit not given here; settings: Conc. 10 uM
T3 sequence (P10632 1-490): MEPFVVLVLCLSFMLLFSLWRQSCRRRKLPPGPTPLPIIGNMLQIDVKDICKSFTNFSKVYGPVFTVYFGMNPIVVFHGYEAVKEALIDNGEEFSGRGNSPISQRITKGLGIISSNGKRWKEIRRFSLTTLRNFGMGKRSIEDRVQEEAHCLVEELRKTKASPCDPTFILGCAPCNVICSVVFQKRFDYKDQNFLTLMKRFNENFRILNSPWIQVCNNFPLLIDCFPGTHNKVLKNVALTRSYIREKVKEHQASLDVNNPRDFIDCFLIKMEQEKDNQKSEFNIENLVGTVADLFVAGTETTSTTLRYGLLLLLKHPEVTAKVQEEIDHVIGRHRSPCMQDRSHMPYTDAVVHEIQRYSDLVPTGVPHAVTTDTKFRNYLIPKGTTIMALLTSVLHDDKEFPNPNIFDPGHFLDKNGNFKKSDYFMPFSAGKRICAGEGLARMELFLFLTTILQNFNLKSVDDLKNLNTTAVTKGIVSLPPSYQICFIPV

CYP 2D6 = CYP 2D6 (Homo sapiens, UniProt P10635); assay: CYP inhibition 2D6; assay type: in vitro ADME; parameters: unit not given here; settings: Conc. 10 uM
Sequence of CYP 2D6 (P10635 whole entry): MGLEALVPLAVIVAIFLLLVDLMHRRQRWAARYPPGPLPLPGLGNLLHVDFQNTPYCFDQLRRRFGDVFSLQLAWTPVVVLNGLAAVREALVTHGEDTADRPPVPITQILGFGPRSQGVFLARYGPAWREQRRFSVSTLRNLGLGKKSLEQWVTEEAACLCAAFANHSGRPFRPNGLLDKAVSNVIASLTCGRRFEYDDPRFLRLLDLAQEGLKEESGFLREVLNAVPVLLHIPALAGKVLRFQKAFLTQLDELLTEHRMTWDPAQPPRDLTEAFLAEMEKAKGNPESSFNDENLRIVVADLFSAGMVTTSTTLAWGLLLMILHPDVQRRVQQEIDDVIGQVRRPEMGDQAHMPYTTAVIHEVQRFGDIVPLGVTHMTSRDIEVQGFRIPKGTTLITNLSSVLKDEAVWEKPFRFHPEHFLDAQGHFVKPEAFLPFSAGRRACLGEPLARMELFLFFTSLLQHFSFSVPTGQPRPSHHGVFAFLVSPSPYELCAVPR

CYP 2C19 = CYP 2C19 (Homo sapiens, UniProt P33261); assay: CYP inhibition 2C19; assay type: in vitro ADME; parameters: unit not given here; settings: Conc. 10 uM
Sequence of CYP 2C19 (P33261 whole entry): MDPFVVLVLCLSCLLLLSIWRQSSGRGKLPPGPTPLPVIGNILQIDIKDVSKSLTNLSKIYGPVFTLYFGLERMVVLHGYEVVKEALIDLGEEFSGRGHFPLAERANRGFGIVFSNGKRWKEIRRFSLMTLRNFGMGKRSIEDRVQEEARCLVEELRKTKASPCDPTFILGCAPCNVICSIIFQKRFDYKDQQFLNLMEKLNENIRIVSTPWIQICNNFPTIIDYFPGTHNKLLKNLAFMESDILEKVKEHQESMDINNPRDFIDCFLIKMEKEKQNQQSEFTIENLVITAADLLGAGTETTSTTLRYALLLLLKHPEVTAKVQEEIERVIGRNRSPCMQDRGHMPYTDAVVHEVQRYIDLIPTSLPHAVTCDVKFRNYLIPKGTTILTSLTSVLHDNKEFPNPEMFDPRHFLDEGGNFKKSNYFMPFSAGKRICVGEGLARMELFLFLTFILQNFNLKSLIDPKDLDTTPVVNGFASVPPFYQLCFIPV

[3] = Microsomal stability, CD-1 Mouse; assay type: in vitro ADME; settings: Conc. 5 uM
Caco2 permeability = assay type: in vitro ADME; settings: human, Caco-2, Conc. 5 uM
CYP 2B6 = target: T4, CYP 2B6 (Homo sapiens, UniProt P20813); assay: CYP inhibition 2B6; assay type: in vitro ADME; parameters: unit not given here; settings: Conc. 10 uM
T4 sequence (P20813 1-491): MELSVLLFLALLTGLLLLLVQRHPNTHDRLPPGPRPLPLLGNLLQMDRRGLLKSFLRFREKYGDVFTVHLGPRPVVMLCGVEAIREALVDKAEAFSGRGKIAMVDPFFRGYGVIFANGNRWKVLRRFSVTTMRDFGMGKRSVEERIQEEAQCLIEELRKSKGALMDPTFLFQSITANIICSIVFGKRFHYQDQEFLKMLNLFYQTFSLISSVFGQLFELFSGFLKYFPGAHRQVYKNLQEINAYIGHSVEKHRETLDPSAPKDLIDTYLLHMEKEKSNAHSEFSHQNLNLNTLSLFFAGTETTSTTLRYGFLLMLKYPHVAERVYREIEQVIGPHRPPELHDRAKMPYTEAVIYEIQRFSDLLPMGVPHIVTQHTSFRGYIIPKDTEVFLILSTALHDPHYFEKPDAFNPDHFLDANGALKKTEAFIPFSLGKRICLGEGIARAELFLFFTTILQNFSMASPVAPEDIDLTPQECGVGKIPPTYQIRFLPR

H1975 = assay: Cell viability, MTT assay, H1975; assay type: cell-based; settings: Homo sapiens, NCI-H1975, H1975 (Lung)
Procedure: (§2) To measure cell viability, cell titer glow (CTG, Promega CellTiter-Glo 2.0 Assay) and MTT assays (SigmaAldrich, Cell Proliferation Kit I) were performed. Briefly, cells were serum starved overnight prior to seeding in 96-well plates. Following 24 h incubation, cells were treated with increasing concentrations of JGJ compounds for 96 hr. At assay read-out, CellTiter-Glo reagent was added and luminescence was measured after 10-minutes incubation at room temperature. For the MTT assay, MTT labeling reagent was added and incubated for 4 h. Subsequently, medium was removed and 50 μL DMSO was added to solubilize the crystals, and absorbance was measured at 570 nm. Cell viability was calculated as (Sample-Background)/(Control-Background).

A549 = assay: Cell viability, MTT assay, A549; assay type: cell-based; settings: Homo sapiens, A549 (Lung)
Procedure: as §2

[4] = microsomes, read-out: Microsomal stability T½

## Cc1cnc2ccc(-c3cccc([N+](=O)[O-])c3)nn12 [JGJ005, 3-Methyl-6-(3-nitrophenyl)imidazo[1,2-b]pyridazine]
[1]
  Inhibition of LIN28B binding to pre-let-7a (FRET signal): greater inhibition of the LIN28B/pre-let-7a2 binding than the original compound LN1632

## CC(=O)N(C)c1cccc(-c2ccc3ncc(C)n3n2)c1 [JGJ008, N-Methyl-N-(3-(3-methylimidazo[1,2-b]pyridazin-6-yl)phenyl)acetamide]
[1]
  Inhibition of LIN28B binding to pre-let-7a (FRET signal): greater inhibition of the LIN28B/pre-let-7a2 binding than the original compound LN1632

## CC(=O)Nc1cc(F)cc(-c2ccc3ncc(C)n3n2)c1 [JGJ026, N-(3-Fluoro-5-(3-methylimidazo[1,2-b]pyridazin-6-yl)phenyl)acetamide]
Mature let-7 miRNAs
  Upregulation of mature let-7 miRNAs: upregulated mature let-7 miRNAs at significantly lower doses than LN1632
CYP 1A2
  CYP inhibition 1A2: 96.2
[2]
  Microsomal stability % Remaining at T30: T30 = 54.7%
[2]; microsomes
  microsomal CLint at 5 uM: 38.2 µL/min/mg
[2]; [4]
  half-life at 5 uM: 36.2 min
CYP 2C9
  CYP inhibition 2C9: 48.8
CYP 2C8
  CYP inhibition 2C8: 61.1
CYP 2D6
  CYP inhibition 2D6: 67.8
CYP 2C19
  CYP inhibition 2C19: 35
[3]
  Microsomal stability % Remaining at T30: T30 = 17%
[3]; microsomes
  microsomal CLint at 5 uM: 118 µL/min/mg
[3]; [4]
  half-life at 5 uM: 11.8 min
Caco2 permeability
  Papp A→B at 5 uM: 27.2 ×10⁻⁶ cm/s
  Papp B→A at 5 uM: 25 ×10⁻⁶ cm/s
  efflux ratio at 5 uM: 0.6
Caco2 permeability; read-out: Caco2 Mean A-B % Recovery
  recovery at 5 uM: 84%
[1]
  Inhibition of LIN28B binding to pre-let-7a (FRET signal): inhibit LIN28's RNA-binding capacity significantly more than compound LN1632
CYP 2B6
  CYP inhibition 2B6: 30.9

## Nc1cccc(-c2ccc3ncc(-c4ccccc4)n3c2)c1 [JGJ032, 3-(3-Phenylimidazo[1,2-a]pyridin-6-yl)aniline]
[1]
  Inhibition of LIN28B binding to pre-let-7a (FRET signal): inhibit LIN28's RNA-binding capacity significantly more than compound LN1632

## C=CC(=O)Nc1cc(Nc2nccc(-c3cn(C)c4ccccc34)n2)c(OC)cc1N(C)CCN(C)C [Osimertinib, reference compound]
H1975
  IC50: 21 µM
A549
  IC50: 11 µM
